Source: patent US8188102B2, “Amide derivative for inhibiting the growth of cancer cells” (Hanmi Holdings Co., Ltd., priority 2007, dated 2012)
Where two headings read alike, the source gives them in different places.

Tests used:
[1] = test system: SW-620 colon/rectal cancer cell line; assay: Cancer cell growth inhibition, SW-620 (SRB); details: Homo sapiens, SW-620, 72 h, read-out: IC50 (nM) SW-620
[2] = test system: SK-Br3 breast cancer cell line; assay: Cancer cell growth inhibition, SK-Br3 (SRB); details: Homo sapiens, SK-BR-3, 72 h, read-out: ID50 (nM) SK-Br3
[3] = target: EGFR T790M kinase (Homo sapiens, UniProt P00533, T790M); assay: Inhibition of EGFR mutant enzyme (T790M)
[4] = test system: A431 skin cancer cell line; assay: Cancer cell growth inhibition, A431 (SRB); details: Homo sapiens, A-431, 72 h, read-out: ID50 (nM) A431
[5] = test system: H1975 lung cancer cell line; assay: Cancer cell growth inhibition, H1975 (celltiter); details: Homo sapiens, NCI-H1975, 48 h, read-out: IC50 (nM) H1975
Method: The medium was removed from each well of the 96-well plate.
In case of H1975, the cells were diluted with a culture medium to a concentration of 50,000 cells/ml. 100 μl of the diluted cell solution was added to each well of a 96-well plate, and, after 1 day, was washed with a mixture of RPMI, 0.1% FBS and 1% penicillin-streptomycin (PS), followed by replacement of the medium. The plate was allowed to be kept overnight and be treated to various concentrations under the same medium condition for 48 hrs. Similarly to an MTT assay, 15 μl of a celltiter one shot solution (Promega) was added to each well, which was incubated for 2 to 3 hrs, and, then, the absorbance at 490 nm was determined.

[6] = target: EGFR (EGFR type 1 kinase, Upstate) (Homo sapiens, UniProt P00533); assay: Inhibition of EGFR enzyme (fluorescence polarization kinase assay)
Method: 10 μl of an EGFR (EGFR type 1 kinase, Upstate, 10 ng/μl) was added to each well of a 96-well plate. […] The calculation and analysis of IC50 were carried out by using Microsoft Excel.

[7] = target: T1, EGFR (Homo sapiens, UniProt P00533); assay: Prolongation study in A431 cells (EGFR phosphorylation inhibition); format: cell-based; details: A-431, 1 μM for 4 hrs, then washed, EGF 100 ng/ml
T1 construct: A skin cancer cell line, A431 (ATCC: CRL-1555), was used; endogenous in cells; host or cells: A431 (ATCC: CRL-1555)
Method: A skin cancer cell line, A431 (ATCC: CRL-1555), was used to test the degrees of the inventive compounds in inhibiting EGFR's phosphorylation and the prolongation of ability to inhibit it thereof.
The cell line was incubated in a culture flask at 37° C. under 95% air and 5% CO2 using a culture medium containing DMEM, 10% FBS and 1% PS. When more than 90% of the total volume of the culture flask became filled with cells, the cultured cell solution was subject to secondary incubation and was poured to each well of a 6-well plate to the extent of 500,000 cells/well. After 24 hrs, the cells were separated from the solution, washed with PBS, and incubated in a culture medium containing DMEM, 0.1% FBS and 1% PS for 16 hrs. The compounds obtained in Examples 1, 17, 19 and 36, and Tarceva as EGFR phosphorylation inhibitors were each added to the cell-containing well to a concentration of 1 μM. After 4 hrs, the cells were separated from the solution, washed 4 times with PBS after every 0, 2, 4 and 8 hrs, and incubated in a culture medium containing DMEM, 0.1% FBS and 1% PS. […] Just before the completion of the reaction, the cultured cell solution was treated with a 100 ng/ml concentration of EGF (Sigma, Cat No. E9644) for 5 mins to induce the activation of EGFR. After the completion of the reaction, the well plate holding the cultured cells was stored at −70° C. In control groups, the replacement of the medium was performed instead of the addition of the EGFR phosphorylation inhibitor, wherein the induction of EGFR activation using EGF was made only in a positive control group and not made in a negative control group.
For Western blot and enzyme immune measuring (ELISA) methods, the well plate stored at −70° C. was allowed to melt to room temperature, and then protein was extracted from the cells in the well plate using a protein extract buffer. The extraction of the protein was performed as follows: 250 μl of the protein extract buffer (Phosphosafe extraction reagent, Calbiochem, Cat No. 71296-3) comprising protease inhibitor cocktail was added to each cell-containing well, which was stirred at room temperature for 5 mins. The cells were collected using a cell scraper and put in an 1.5 ml tube, which was centrifuged at a speed of 16,000×g for 5 mins. The upper layer thus obtained was separated, of which the protein content was determined by a protein assay kit (Bio-rad, Cat No. 500-0116). The protein extracted was diluted with PBS to a concentration of 0.8 mg/ml.
A human EGFR (py1173) immunoassay kit (Biosource, Cat No. KHR9071) was used in the enzyme immune measuring method. 100 μl of the sample which was diluted by 4 folds with a standard dilution buffer in a kit was added to a strip well, which was incubated at a 4° C. refrigerator overnight. The cultured cells was separated therefrom and washed 4 times with 200 μl of a washing buffer. 100 μl of the resulting primary antibody (anti-human EGFR [pY1173]) was put to each strip well, incubated at 37° C. for 1 hr, and washed 4 times with 200 μl of a washing buffer. The resulting secondary antibody (anti-rabbit IgG-HRP) was diluted by 100 folds with an HRP dilution buffer in a kit. 100 μl of the dilute was put to each strip well, incubated at 37° C. for 30 mins, and washed 4 times with 200 μl of the washing buffer. 100 μl of an HRP substrate in a kit was put to each strip well and incubated in a darkroom for 10 to 30 mins. 100 μl of a reaction stop solution was added thereto to terminate the reaction, and then, the absorbance at 450 nm was observed.
Electrophoresis and Western blot methods were conducted based on the conventional methods in the following: An LDS buffer was added to each sample, which was allowed to boil at 70° C. for 10 mins. 10 μl of the resulting solution was loaded to a 12-well gel (Nupage 4˜12% Bis-tris gel, Invitrogen), followed by 120 volt-electrophoresis in a buffer (MOPS electrophoresis buffer, Invitrogen, Cat No. NP0006-1) for 2 hrs. […]

[8] = read-out: IC50 (nM) T790M, EGFR T790M kinase
[9] = 0 hr after washing, read-out: EGFR phosphorylation inhibition in A431 cell line (%) 0 hr Avg.
[10] = 8 hrs after washing, read-out: EGFR phosphorylation inhibition in A431 cell line (%) 8 hrs Avg.
[11] = 24 hrs after washing, read-out: EGFR phosphorylation inhibition in A431 cell line (%) 24 hrs Avg.
[12] = 48 hrs after washing, read-out: EGFR phosphorylation inhibition in A431 cell line (%) 48 hrs Avg.

Sequence of EGFR T790M kinase (P00533 25-1210 T790M): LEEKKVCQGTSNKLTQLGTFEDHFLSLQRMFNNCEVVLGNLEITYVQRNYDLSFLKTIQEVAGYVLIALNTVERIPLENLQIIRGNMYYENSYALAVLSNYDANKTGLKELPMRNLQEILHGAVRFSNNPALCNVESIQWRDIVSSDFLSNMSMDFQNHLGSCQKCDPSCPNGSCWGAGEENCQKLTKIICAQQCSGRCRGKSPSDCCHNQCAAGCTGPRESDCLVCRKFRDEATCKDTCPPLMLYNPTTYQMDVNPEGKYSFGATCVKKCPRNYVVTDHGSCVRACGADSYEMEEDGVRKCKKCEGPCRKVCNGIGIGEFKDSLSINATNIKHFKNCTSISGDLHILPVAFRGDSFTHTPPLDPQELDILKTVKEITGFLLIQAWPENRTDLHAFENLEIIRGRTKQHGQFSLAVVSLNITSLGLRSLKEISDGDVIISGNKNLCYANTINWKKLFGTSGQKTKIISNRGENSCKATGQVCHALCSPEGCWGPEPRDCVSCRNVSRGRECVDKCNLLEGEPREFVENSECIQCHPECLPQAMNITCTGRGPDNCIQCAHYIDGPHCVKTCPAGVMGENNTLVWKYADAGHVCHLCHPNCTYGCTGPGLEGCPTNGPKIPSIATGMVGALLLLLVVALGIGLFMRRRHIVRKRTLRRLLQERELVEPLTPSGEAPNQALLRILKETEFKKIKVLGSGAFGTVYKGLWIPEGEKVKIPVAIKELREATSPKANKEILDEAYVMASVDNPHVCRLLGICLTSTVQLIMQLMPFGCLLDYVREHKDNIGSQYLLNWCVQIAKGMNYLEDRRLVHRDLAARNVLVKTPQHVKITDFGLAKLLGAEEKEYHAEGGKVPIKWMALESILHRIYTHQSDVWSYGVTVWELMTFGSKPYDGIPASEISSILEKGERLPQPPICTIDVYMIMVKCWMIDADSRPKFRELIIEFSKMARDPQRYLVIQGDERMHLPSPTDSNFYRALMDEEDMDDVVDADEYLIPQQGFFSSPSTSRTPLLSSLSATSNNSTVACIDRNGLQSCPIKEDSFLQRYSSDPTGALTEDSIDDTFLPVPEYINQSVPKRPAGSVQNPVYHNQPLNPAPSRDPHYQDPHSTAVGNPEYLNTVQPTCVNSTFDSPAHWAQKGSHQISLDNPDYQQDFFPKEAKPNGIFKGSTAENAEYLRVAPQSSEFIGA
T1 sequence (P00533 25-1210): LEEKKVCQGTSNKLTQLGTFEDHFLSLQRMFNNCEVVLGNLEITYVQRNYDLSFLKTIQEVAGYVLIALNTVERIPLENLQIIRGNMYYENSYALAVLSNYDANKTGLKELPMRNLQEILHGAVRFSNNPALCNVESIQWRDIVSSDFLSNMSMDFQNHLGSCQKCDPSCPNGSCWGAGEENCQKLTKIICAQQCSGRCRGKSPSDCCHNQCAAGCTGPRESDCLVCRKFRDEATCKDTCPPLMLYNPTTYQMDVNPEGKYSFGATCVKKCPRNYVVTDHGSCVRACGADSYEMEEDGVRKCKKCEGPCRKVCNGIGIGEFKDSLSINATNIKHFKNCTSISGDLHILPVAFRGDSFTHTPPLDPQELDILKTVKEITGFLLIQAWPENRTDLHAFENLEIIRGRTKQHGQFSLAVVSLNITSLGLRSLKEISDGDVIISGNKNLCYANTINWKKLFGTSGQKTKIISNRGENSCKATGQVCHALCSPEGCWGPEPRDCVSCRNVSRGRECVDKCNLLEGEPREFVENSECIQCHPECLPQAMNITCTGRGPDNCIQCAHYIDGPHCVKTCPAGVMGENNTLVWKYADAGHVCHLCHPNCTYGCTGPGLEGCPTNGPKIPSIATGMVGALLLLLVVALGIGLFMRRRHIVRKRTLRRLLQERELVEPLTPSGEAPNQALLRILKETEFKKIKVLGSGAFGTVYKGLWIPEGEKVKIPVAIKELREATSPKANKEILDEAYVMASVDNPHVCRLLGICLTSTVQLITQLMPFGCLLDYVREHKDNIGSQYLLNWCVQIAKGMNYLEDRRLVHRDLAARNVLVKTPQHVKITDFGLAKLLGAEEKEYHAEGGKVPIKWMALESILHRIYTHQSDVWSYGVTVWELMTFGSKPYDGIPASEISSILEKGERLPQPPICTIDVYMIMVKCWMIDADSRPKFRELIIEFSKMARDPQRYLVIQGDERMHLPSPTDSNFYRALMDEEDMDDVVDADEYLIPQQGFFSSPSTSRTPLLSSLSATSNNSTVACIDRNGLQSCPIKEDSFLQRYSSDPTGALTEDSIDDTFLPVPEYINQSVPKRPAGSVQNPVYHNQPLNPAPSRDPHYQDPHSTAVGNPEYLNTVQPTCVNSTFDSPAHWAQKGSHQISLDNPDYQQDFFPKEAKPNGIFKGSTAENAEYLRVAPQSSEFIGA
Sequence of EGFR (EGFR type 1 kinase, Upstate) (P00533 25-1210): as above

Structure (SMILES) | IC50 [1] [nM] | IC50 [2] [nM] | IC50 [3, 8] [nM] | IC50 [4] [nM] | IC50 [5] [nM] | IC50 ([6]; read-out: IC50 (nM) EGFR, EGFR type 1 kinase, ATP 50 μM) [nM] | IC50 [6] [nM] | IC50 [3] [nM] | inhibition at 1 µM [7, 9] [%] | inhibition at 1 µM [7, 10] [%] | inhibition at 1 µM [7, 11] [%] | inhibition at 1 µM [7, 12] [%] | inhibition at 1 µM ([7]; 72 hrs after washing, read-out: EGFR phosphorylation inhibition in A431 cell line (%) 72 hrs Avg.) [%]
C=CC(=O)N1CCC(Oc2cc3c(Nc4cccc(C(F)(F)F)c4)ncnc3cc2OC)CC1 [Example 58, 1-(4-(7-methoxy-4-(3-(trifluoromethyl)phenylamino)quinazolin-6-yloxy)piperidin-1-yl)pro-2-pen-1-one] | > 5000 | 20 | 16.2 | 58 | – | – | – | – | – | – | – | – | –
C=CC(=O)N1CC[C@H](Oc2cc3c(Nc4ccc(F)c(Cl)c4F)ncnc3cc2OC)C[C@H]1C(=O)NCCO [Example 126, (2S,4S)-1-acryloyl-4-(4-(3-chloro-2,4-difluorophenylamino)-7-methoxyquinazolin-6-yloxy)-N-(2-hydroxyethyl)piperidin-2-carboxamide] | > 5000 | 0.9 | 1.8 | 5.4 | 39 | – | – | – | – | – | – | – | –
C=CC(=O)N1CC(Oc2cc3c(N[C@H](C)c4ccccc4)ncnc3cc2OC)C1 [Example 22, (R)-1-(3-(7-methoxy-4-(1-phenylethylamino)quinazolin-6-yloxy)azetidin-1-yl)pro-2-pen-1-one] | – | 1 | 15 | 7 | 156 | 6 | – | – | – | – | – | – | –
C=CC(=O)N1CCC(Oc2ccc3ncnc(Nc4ccc(F)c(Cl)c4F)c3c2)CC1 [Example 71, 1-(4-(4-(3-chloro-2,4-difluorophenylamino)quinazolin-6-yloxy)piperidin-1-yl)pro-2-pen-1-one] | – | 5 | – | 8 | 70 | – | 2.7 | 24 | – | – | – | – | –
C=CC(=O)N1CC[C@H](Oc2cc3c(Nc4ccc(F)c(Cl)c4F)ncnc3cc2OC)C[C@H]1C(=O)NCCSC [Example 128, (2S,4S)-1-acryloyl-4-(4-(3-chloro-2,4-difluorophenylamino)-7-methoxyquinazolin-6-yloxy)-N-(2-(methylthio)ethyl)piperidin-2-carboxamide] | > 5000 | 5 | 1.4 | 2.4 | 5 | – | – | – | – | – | – | – | –
C=CC(=O)N1CCC(Oc2cc3c(Nc4ccc(Cl)c(Cl)c4F)ncnc3cc2OC)CC1 [Example 36, 1-(4-(4-(3,4-dichloro-2-fluorophenylamino)-7-methoxyquinazolin-6-yloxy)piperidin-1-yl)pro-2-pen-1-one] | > 5000 | 0.3 | – | – | – | – | – | – | 90 | 89 | 81 | 41 | 44
C=CC(=O)N1CC[C@H](Oc2cc3c(Nc4ccc(F)c(Cl)c4F)ncnc3cc2OC)C[C@H]1C(=O)NCCOC [Example 127, (2S,4S)-1-acryloyl-4-(4-(3-chloro-2,4-difluorophenylamino)-7-methoxyquinazolin-6-yloxy)-N-(2-methoxyethyl)piperidin-2-carboxamide] | > 5000 | 2.3 | 3.8 | 3.4 | 11 | – | – | – | – | – | – | – | –
C=CC(=O)N1CC[C@H](Oc2cc3c(Nc4ccc(F)c(Cl)c4F)ncnc3cc2OC)C1 [Example 1, 1-((3S)-3-(4-(3-chloro-2,4-difluorophenylamino)-7-methoxyquinazolin-6-yloxy)pyrrolidin-1-yl)prop-2-en-1-one] | > 5000 | 8 | – | 4 | 80 | – | – | – | 71 | 71 | 73 | 42 | –
C=CC(=O)N1CC[C@H](Oc2cc3c(Nc4ccc(F)c(Cl)c4F)ncnc3cc2OC)C[C@H]1C(=O)NCCN(C)C [Example 130, (2S,4S)-1-acryloyl-4-(4-(3-chloro-2,4-difluorophenylamino)-7-methoxyquinazolin-6-yloxy)-N-(2-(dimethylamino)ethyl)piperidin-2-carboxamide] | > 5000 | 0.9 | 6.6 | 5.7 | 30 | – | – | – | – | – | – | – | –
C=CC(=O)N1CC[C@@H](Oc2cc3c(Nc4ccc(F)c(Cl)c4F)ncnc3cc2OC)C[C@@H]1C(=O)NC [Example 136, (2R,4R)-1-acryloyl-4-(4-(3-chloro-2,4-difluorophenylamino)-7-methoxyquinazolin-6-yloxy)-N-methylpiperidin-2-carboxamide] | > 5000 | 0.2 | 0.9 | 2.9 | 2.6 | – | – | – | – | – | – | – | –
C=C(CN(C)C)C(=O)N1CC(Oc2cc3c(Nc4ccc(F)c(Cl)c4F)ncnc3cc2OC)C1 [Example 104, 1-(3-(4-(3-chloro-2,4-difluorophenylamino)-7-methoxyquinazolin-6-yloxy)azetidin-1-yl)-2-((dimethylamino)methyl)prop-2-en-1-one] | > 5000 | 1.5 | 2 | 41 | 11 | – | – | – | – | – | – | – | –
C=C(CN1CCOCC1)C(=O)N1CC(Oc2cc3c(Nc4ccc(F)c(Cl)c4F)ncnc3cc2OC)C1 [Example 105, 1-(3-(4-(3-chloro-2,4-difluorophenylamino)-7-methoxyquinazolin-6-yloxy)azetidin-1-yl)-2-(morpholinomethyl)prop-2-en-1-one] | > 5000 | 0.5 | 4 | 1.5 | 8 | – | – | – | – | – | – | – | –
C=CC(=O)N1CCC(Oc2cc3c(Nc4cccc(C)c4)ncnc3cc2OC)CC1 [Example 41, 1-(4-(4-(m-toluidino)-7-methoxyquinazolin-6-yloxy)piperidin-1-yl)pro-2-pen-1-one] | – | 2 | 9.3 | 1 | 236 | – | – | – | – | – | – | – | –
C=CC(=O)N1CCC(Oc2cc3c(Nc4cccc(C=C)c4)ncnc3cc2OC)CC1 [Example 73, 1-(4-(7-methoxy-4-(3-vinylphenylamino)quinazolin-6-yloxy)piperidin-1-yl)pro-2-pen-1-one] | > 5000 | 1.2 | 3 | 1.9 | 27 | – | – | – | – | – | – | – | –
